Series [1] has as its system carrageenan-induced rat paw edema. The series is described as follows: Carrageenan-induced rat paw edema model. It is filed as in vivo. The conditions noted are these: 75 mg/kg equivalent dose of aspirin, p.o. The procedure:
Male or female Sprague-Dawley rats weighing 150-200 g were used in the study. The rats were fed normal standard laboratory chow and maintained under standard conditions (room temperature of 22 ± 2 °C; 50 ± 10 % relative humidity; artificial light 06:00 to 18:00). All experimental procedures mentioned below are approved by institutional animal research committees and were performed in accordance with standard guidelines for the treatment of animals.
Anti-inflammatory activity of test compounds was measured in carrageenan-induced rat paw edema model (Takeuchi et al., J. Pharmacol. Exp. Ther. 1998, 286 (1), 115-121). […] We have not yet evaluated I-C1-NOPD5Bin this efficacy test.

A further series concerns mucosal damage. The following applies: rats, oral, 200 mg/kg equivalent doses, 3 hours after administration.
Series [2] in a line: In vitro plasma stability. The following applies: rat plasma at 37 °C, 30 minutes incubation, HPLC analysis.
Experimental: HPLC: Waters Allience analytical HPLC equipped with 2996 PDA detector and Empower software were used to analyze the samples.
HPLC Column: Waters X-Terra RP-18 analytical column, 150 X 3.9 mm, 5 .
HPLC Method: Flow: 1 mL/min, detecter set at 210 nm and at Maxplot (210-400 nm range). Solvent A: Acetonitrile; Solvent B: 0.1% TFA in water. Elution method: A linear gradient of 0-100% A.
The compounds were extracted back into acetonitrile with rigorous vortex.

In the case of `CC(=O)Oc1ccccc1C(=O)NC(=O)OCCSSCCO[N+](=O)[O-]` [I-C1-NOPD5A], the “anti-inflammatory activity (in words)” value in series [1] is given as “negligible anti-inflammatory activity at any time point tested”. The “ulcer development (in words)” value in the series with mucosal damage is “none of the animals treated with the test compounds showed any signs of development of ulcers”. Moreover, the “release of parent drug / conversion to salicylate” value in series [2] is “converting to the expected metabolite (salicylate)”.
